{"source": "patent US7393848B2", "about": "“Certain heterocyclic substituted imidazo[1,2-A]pyrazin-8-ylamines and methods of inhibition of Bruton's tyrosine kinase by such compounds” (CGI Pharmaceuticals, Inc., priority 2003, dated 2008)", "target": "T1, full length human wildtype Btk (Homo sapiens, UniProt Q06187)", "T1 construct": "V5 (C); 6xHis (C); made in house; host or cells: Sf9 insect cells (baculovirus, pFastBac / Bac-to-Bac)", "T1 sequence (Q06187 whole entry)": "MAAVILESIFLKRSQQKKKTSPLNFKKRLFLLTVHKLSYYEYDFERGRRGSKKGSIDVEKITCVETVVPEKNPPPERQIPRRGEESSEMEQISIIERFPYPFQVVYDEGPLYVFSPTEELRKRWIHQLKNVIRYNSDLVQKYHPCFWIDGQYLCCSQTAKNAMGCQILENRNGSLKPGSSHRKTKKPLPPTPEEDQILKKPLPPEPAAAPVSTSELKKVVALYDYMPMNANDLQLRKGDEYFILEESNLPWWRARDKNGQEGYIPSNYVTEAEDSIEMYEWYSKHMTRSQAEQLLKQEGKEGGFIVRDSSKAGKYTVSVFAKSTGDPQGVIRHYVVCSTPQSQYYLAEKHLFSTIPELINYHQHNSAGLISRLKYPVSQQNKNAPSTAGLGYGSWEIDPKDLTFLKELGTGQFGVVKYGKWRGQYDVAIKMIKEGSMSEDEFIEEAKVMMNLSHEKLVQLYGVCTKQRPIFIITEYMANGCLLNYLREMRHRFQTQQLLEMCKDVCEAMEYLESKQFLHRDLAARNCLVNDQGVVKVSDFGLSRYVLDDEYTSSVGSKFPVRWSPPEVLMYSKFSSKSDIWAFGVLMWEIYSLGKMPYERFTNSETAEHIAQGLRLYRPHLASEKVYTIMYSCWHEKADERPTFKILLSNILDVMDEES", "assay": "Biochemical Btk Assay (time-resolved fluorescence kinase assay)", "conditions": "40 μM ATP, 1 hour at room temperature; read-out: IC50 value in the Btk biochemical assay of Example 7", "procedure": "A generalized procedure for one standard biochemical Btk Kinase Assay used to test compounds disclosed in this application is as follows.\nA master mix minus Btk enzyme is prepared containing 1× Cell Signaling kinase buffer (25 mM Tris-HCl, pH 7.5, 5 mM […]-glycerophosphate, 2 mM dithiothreitol, 0.1 mM Na3VO4, 10 mM MgCl2), 0.5 μM Promega PTK Biotinylated peptide substrate 2, and 0.01% BSA. A master mix plus Btk enzyme is prepared containing 1× Cell Signaling kinase buffer, 0.5 μM PTK Biotinylated peptide substrate 2, 0.01% BSA, and 100 ng/well (0.06 mU/well) Btk enzyme. Btk enzyme is prepared as follows: full length human wildtype Btk (accession number NM-000061) with a C-terminal V5 and 6× His tag was subcloned into pFastBac vector for making baculovirus carrying this epitope-tagged Btk. […] A quantity of 1.25 μL of compounds in 5% DMSO is transferred to a 96-well ½ area Costar polystyrene plate. […] A quantity of 18.75 μL of master mix minus enzyme (as a negative control) and master mix plus enzyme is transferred to appropriate wells in 96-well ½ area costar polystyrene plate. […] The plate is read using time-resolved fluorescence with a Perkin Elmer Envision using excitation filter 330 nm, emission filter 665 nm, and 2nd emission filter 615 nm. IC50 values are subsequently calculated.", "data": [{"smiles": "CC(C)(C)c1ccc(C(=O)Nc2cccc(-c3cn4ccnc4c(Nc4ccc5[nH]ncc5c4)n3)c2)cc1", "note": "[Example 6]", "values": [{"measurement": "IC50", "value": "< 1000", "unit": "nM"}]}]}
